Results published in PMC7906415, “Metabolite profile of Nectandra oppositifolia Nees & Mart. and assessment of antitrypanosomal activity of bioactive compounds through efficiency analyses” (PLoS ONE, 2021).
Like-named read-outs stand apart in the source and are kept apart here.

Legend:
[1] = Cytotoxicity against mammalian cells, MTT assay (CC50); assay type: cell-based, murine; conditions: mouse
Method: Trypanosoma cruzi trypomastigotes (Y strain) were routinely maintained in Rhesus monkey kidney cells (LLC-MK2 –ATCC CCL 7), using RPMI-1640 medium supplemented with 2% FBS at 37°C in a 5% CO2-humidified incubator. The murine conjunctive cells (NCTC clone 929, ATCC) were maintained in RPMI-1640 medium supplemented with 10% FBS at 37°C in a 5% CO2 –humidified incubator. Peritoneal macrophages, used for the amastigote assays, were obtained by washing the peritoneal cavity of BALB/c mice with RPMI-1640 medium supplemented with 10% FBS and were kept at 37°C in a 5% CO2-humidified incubator.
The cytotoxicity assays were performed using NCTC cells-clone 929. The cells were counted, seeded (6 x 10^4 cells/well), and incubated with compounds 1–12 and 7a- 7e (200–1.56 μM—serial dilution) for 48 h at 37°C in a 5% CO2-humidified incubator. The optical density was determined using a FilterMax F5 (Molecular Devices) at 570 nm. The 50% cytotoxic concentration (CC50) values were determined by MTT assay. Selectivity index (SI) values were calculated using the ratio: CC50 against NCTC cells/EC50 against parasites form (amastigotes).
EC50 and CC50 data represent the mean of two independent representative assays tested in duplicate and were calculated using sigmoid dose-response curves with Graph–Pad Prism 6.0 software (San Diego, CA, USA).

[2] = tested on: Trypanosoma cruzi intracellular amastigotes; assay: Activity against intracellular amastigotes of T. cruzi in infected peritoneal macrophages (EC50); assay type: cell-based, Trypanosoma cruzi (Y strain); conditions: for EC50: Trypanosoma cruzi, Peritoneal macrophage, in Mus musculus, read-out: EC50 ± SD; for EC50 / EC50 ± SD: 48 h; for SI (selectivity index): ratio CC50 against NCTC cells/EC50 against amastigote forms
Method: Trypanosoma cruzi trypomastigotes (Y strain) were routinely maintained in Rhesus monkey kidney cells (LLC-MK2 –ATCC CCL 7), using RPMI-1640 medium supplemented with 2% FBS at 37°C in a 5% CO2-humidified incubator. The murine conjunctive cells (NCTC clone 929, ATCC) were maintained in RPMI-1640 medium supplemented with 10% FBS at 37°C in a 5% CO2 –humidified incubator. Peritoneal macrophages, used for the amastigote assays, were obtained by washing the peritoneal cavity of BALB/c mice with RPMI-1640 medium supplemented with 10% FBS and were kept at 37°C in a 5% CO2-humidified incubator. To evaluate the activity against intracellular amastigotes, the peritoneal macrophages obtained from BALB/c mice were infected with trypomastigotes forms of T. cruzi. The macrophages were plated on a 16-well chamber slide (NUNC plate, Merck; 1 x 10^5/well) and incubated for 24 h at 37°C in a 5% CO2-humidified incubator. […] After 2 h of incubation at 37°C in a 5% CO2-humidified incubator, the non-internalized parasites were removed by washing with RPMI-1640 medium. Compounds 1–12 and 7a-7e were incubated by serial dilution (100–1.56 μM) with the infected macrophages (48 h at 37°C, 5% CO2) using benznidazole as the standard drug. At the end of the assay, slides were fixed with MeOH and stained with Giemsa prior to counting under a light microscope (EVOS M5000, THERMO). The EC50 values were calculated as previously described. EC50 and CC50 data represent the mean of two independent representative assays tested in duplicate and were calculated using sigmoid dose-response curves with Graph–Pad Prism 6.0 software (San Diego, CA, USA).

T. cruzi amastigotes = conditions: cited from earlier work
mammalian cells = tested on: mammalian cells; design: method as in PMID 31132603; conditions: cytotoxicity, previous work; cited from earlier work
[3] = NCTC clone 929 cells, 48 h, MTT, 200–1.56 μM, read-out: CC50
[4] = intracellular amastigote forms of T. cruzi in BALB/c peritoneal macrophages, 100–1.56 μM

Row | Compound | CC50 at 48 h [1, 3] | EC50 [2, 4] | SI (selectivity index) [2] | other results
1 | CCOC(=O)c1ccc(O)c(O)c1 [Compound 7, ethyl protocatechuate] | > 200 µM | 18.1 ± 0.3 µM | – | –
2 | CCCOC(=O)c1ccc(O)c(O)c1 [Compound 7b] | > 200 µM | 20.4 ± 4.2 µM | > 9.8 | –
3 | COC(=O)c1ccc(O)c(O)c1 [Compound 7a] | > 200 µM | > 100 µM | – | EC50 ± SD [2, 4]: inactive
4 | CC1=CC(=O)CC(C)(C)[C@@]1(O)/C=C/C(C)=C\C(=O)O [Compound 3, (+)-(S)-abscisic acid] | > 200 µM | – | – | EC50 [2]: > 100 µM
5 | Isolinderanolide D | – | – | – | EC50 (T. cruzi amastigotes; amastigote forms of T. cruzi): 25.3 µM
6 | O=Cc1c[nH]c2ccccc12 [Compound 2, indole-3-aldehyde] | – | > 100 µM | – | CC50 at 48 h [1]: > 200 µM
7 | COc1cc(C2OC(c3ccc(O)c(OC)c3)C(C)C2C)ccc1O (stereo not drawn) [Compound 11, verrucosin] | > 200 µM | 36.8 ± 4.9 µM | > 5.4 | –
8 | O=C(O)c1ccc(O)c(O)c1 [protocatechuic acid, reference compound] | > 200 µM | – | – | EC50 [2]: > 100 µM; EC50 ± SD [2, 4]: inactive
9 | CCCCCOC(=O)c1ccc(O)c(O)c1 [Compound 7d] | > 200 µM | 12.3 ± 3.8 µM | > 16.3 | –
10 | CCOC(=O)C1CCC(=O)N1 (stereo in doubt) [Compound 1, ethyl (R)-pyroglutamate] | > 200 µM | > 100 µM | – | –
11 | CC1(C)CC(O)CC(C)(O)/C1=C\C(=O)O (stereo not drawn) [Compound 4, 2Z-(2,4-dihydroxy-2,6,6-trimethylcyclohexylidene)acetic acid] | – | 28.2 ± 2.9 µM | > 7.1 | CC50 at 48 h [1]: > 200 µM
12 | COc1cc([C@H]2O[C@@H](c3ccc(O)c(OC)c3)[C@H](C)[C@@H]2C)ccc1O [Compound 12, nectandrin B] | > 200 µM | 31 ± 0.3 µM | > 6.4 | –
13 | C=C1OC(=O)/C(=C\CCCCCCCCCCCCCCC)[C@H]1O [isolinderanolide E] | – | – | – | EC50 (T. cruzi amastigotes; amastigote forms of T. cruzi): 10.1 µM
14 | CCCCCCOC(=O)c1ccc(O)c(O)c1 [Compound 7e] | > 200 µM | 11.7 ± 2.7 µM | > 17.1 | –
15 | COc1cc(C(=O)[C@H](CO)c2ccc(O)c(OC)c2)ccc1O [Compound 9, (-)-evofolin B] | > 200 µM | 27.8 ± 0.2 µM | > 7.2 | –
16 | O=C(Cn1ccnc1[N+](=O)[O-])NCc1ccccc1 [Benznidazole, benznidazole, reference compound] | > 200 µM | 18.7 ± 4.1 µM | > 10.7 | –
17 | COc1cc2ccc(=O)oc2cc1O [Compound 8, scopoletin] | > 200 µM | > 100 µM | – | –
18 | O=C(O)CCCCCCCC(=O)O [Compound 5, azelaic acid] | > 200 µM | > 100 µM | – | –
19 | CCCCCCCCOC(=O)c1ccc(O)c(O)c1 [n-octyl ester of protocatechuic acid] | – | – | – | EC50 (T. cruzi amastigotes; T. cruzi amastigotes): 13.9 µM; CC50 (mammalian cells): 108 µM
20 | COc1cc(C(=O)O)ccc1O [Compound 6, vanillic acid] | > 200 µM | > 100 µM | – | –
21 | COc1cc(/C=C/C(=O)NCCc2ccc(O)cc2)ccc1O [Compound 10, moupinamide] | > 200 µM | > 100 µM | – | –
22 | CCCCOC(=O)c1ccc(O)c(O)c1 [Compound 7c] | > 200 µM | 19.4 ± 6.3 µM | > 10.3 | –
23 | CCCCCCCCOC(=O)c1ccc(O)c(OC)c1 [n-octyl ester of vanillic acid] | – | – | – | EC50 (T. cruzi amastigotes; T. cruzi amastigotes): 6.8 µM
